Measured values: patent publication US20100331305A1, “OXO-HETEROCYCLE FUSED PYRIMIDINE COMPOUNDS, COMPOSITIONS AND METHODS OF USE” (Genentech, Inc., priority 2009, published 2010)
pEC50, pKi: −log10 of the molar value.

Tests used:
PC3 cells = assay: In vitro cell proliferation assay; format: cell-based, human; conditions: Homo sapiens, PC-3, with PC3 cells; values tied to compounds by order of Table 1
Method in brief: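 PC3 (or MDAMB361.1) cells, ~10^3/well, settled overnight, then exposed to compound for 3 days; viability read by CellTiter-Glo luminescence (RLU). Alternatively, 4-day compound exposure followed by Alamar Blue for 6 h, fluorescence 544/590 nm; EC50 from sigmoidal dose-response fit.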

[1] = system: AKT serine-473 phosphorylation in PC-3 cells; assay: In vitro phospho-AKT serine 473 cellular assay; format: cell-based; conditions: Homo sapiens; PC-3 cells stimulated with EGF; first nine specific compounds; read-out: EC50 activity level, inhibition of AKT serine-473 phosphorylation
Protocol: b. In Vitro Phospho-AKT Serine 473 Cellular Assay
The assay measures a test compound's inhibition of AKT serine-473 phosphorylation in human prostate adenocarcinoma derived PC-3 (ATCC CRL-1435) cells that have been stimulated with epidermal growth factor (EGF).
The PC-3 cell line is maintained in RPMI1640 media supplemented with 10% FBS, 2 mM Glutamine, and 10 mM HEPES pH 7.4 at 37° C. in a 5% CO2 humidified incubator.
Cells are seeded in 384-well plates at 7,000 cells/well in 50 μl growth media. After 24 hours, growth media is removed and replaced with RPMI1640 containing no FBS. Cells are treated with 10 concentrations of test compounds or DMSO alone for controls (final DMSO concentration 0.5%) and incubated at 37° C. for 30 minutes. Cells are then stimulated for 10 minutes with 100 ng/ml EGF (final concentration). One column of controls is not stimulated with EGF to observe the signal ratio between stimulated and non-stimulated cells. After 10 minutes, compounds and stimulation media are removed and replaced with 25 μl lysis buffer containing protease inhibitors and phosphatase inhibitors. This buffer contains detergent to bring about cellular disruption. […] Following the transfer of lysate to the MSD plate, AKT in the lysate is captured on the coated antibody by incubation on a shaker at 4° C. for 16 hours. Following the capture step the plate is washed and then incubated for two hours with an antibody to S473 phosphorylated AKT which is conjugated with a Sulfo-Tag. This tag gives a signal when in proximity to the electrode on the base of the MSD plate. Binding the tagged antibody to the captured protein allow detection on a MSD reader.
EC50 values are calculated using MDL Assay Explorer 3.0.1.8 fitting a sigmoidal curve with a variable slope.

[2] = target: mTOR enzyme (mTOR(1360-2549)+GBL) (Homo sapiens, UniProt P42345); assay: In vitro mTOR kinase assay (TR-FRET); format: biochemical; conditions: 0.25 nM mTOR+GBL, 8 uM ATP; values tied to compounds by order of Table 1; 'x or y' = two alternative values for separated diastereomers of unassigned stereochemistry; read-out: activity level (Ki) in the mTOR kinase assay
mTOR enzyme (mTOR(1360-2549)+GBL), sequence (P42345 1360-2549, species assumed): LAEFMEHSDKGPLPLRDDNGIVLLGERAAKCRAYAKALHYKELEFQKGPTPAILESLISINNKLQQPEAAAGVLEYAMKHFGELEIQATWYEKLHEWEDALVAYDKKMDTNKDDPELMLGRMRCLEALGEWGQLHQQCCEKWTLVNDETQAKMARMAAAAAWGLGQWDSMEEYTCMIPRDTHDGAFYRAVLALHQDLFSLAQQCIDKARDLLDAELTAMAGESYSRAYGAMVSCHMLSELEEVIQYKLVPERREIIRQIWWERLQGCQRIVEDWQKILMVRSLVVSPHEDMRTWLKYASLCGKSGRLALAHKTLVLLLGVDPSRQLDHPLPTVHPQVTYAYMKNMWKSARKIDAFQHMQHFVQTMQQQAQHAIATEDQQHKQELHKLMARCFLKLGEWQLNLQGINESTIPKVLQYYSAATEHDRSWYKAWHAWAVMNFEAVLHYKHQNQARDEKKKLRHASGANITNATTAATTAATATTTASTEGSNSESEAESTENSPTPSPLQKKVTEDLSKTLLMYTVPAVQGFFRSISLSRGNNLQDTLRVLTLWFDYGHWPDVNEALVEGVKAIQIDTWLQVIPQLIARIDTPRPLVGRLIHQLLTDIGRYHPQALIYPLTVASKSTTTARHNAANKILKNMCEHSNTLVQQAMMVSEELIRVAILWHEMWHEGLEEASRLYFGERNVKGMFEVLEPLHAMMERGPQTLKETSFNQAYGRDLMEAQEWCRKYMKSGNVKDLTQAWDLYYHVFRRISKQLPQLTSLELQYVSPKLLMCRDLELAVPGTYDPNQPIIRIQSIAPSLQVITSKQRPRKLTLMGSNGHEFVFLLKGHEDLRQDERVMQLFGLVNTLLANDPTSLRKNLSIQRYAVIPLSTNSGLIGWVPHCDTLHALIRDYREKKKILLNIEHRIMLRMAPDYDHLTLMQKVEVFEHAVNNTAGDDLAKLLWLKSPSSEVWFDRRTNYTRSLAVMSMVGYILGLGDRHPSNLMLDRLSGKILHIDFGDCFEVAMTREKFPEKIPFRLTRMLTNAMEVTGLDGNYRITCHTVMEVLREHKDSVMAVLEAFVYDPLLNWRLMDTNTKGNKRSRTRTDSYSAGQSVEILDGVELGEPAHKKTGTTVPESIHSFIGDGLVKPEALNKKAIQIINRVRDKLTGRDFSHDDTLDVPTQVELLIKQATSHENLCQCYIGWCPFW
mTOR enzyme (mTOR(1360-2549)+GBL), sequence (Q9BVC4 whole entry partner, species assumed): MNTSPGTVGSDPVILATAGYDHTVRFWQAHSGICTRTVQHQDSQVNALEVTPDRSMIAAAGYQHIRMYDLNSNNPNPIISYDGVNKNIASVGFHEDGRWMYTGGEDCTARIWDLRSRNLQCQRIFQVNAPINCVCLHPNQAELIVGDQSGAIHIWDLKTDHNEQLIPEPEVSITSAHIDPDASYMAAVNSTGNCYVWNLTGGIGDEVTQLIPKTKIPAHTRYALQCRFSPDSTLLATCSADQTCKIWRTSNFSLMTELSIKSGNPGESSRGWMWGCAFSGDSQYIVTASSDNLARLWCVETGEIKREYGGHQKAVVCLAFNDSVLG
Method in brief: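 Compounds were tested in 10-point dose curves from 10 uM top final concentration. The reaction was stopped with 2 nM Tb-anti-p4E-BP1 (T37/T46) antibody plus 10 mM EDTA for 30 minutes, and phospho-4E-BP1 was detected by TR-FRET. Ki apparent was fitted with the Morrison ATP-competitive tight-binding equation.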

In the case of CCNC(=O)Nc1ccc(-c2nc3c(c(N4CCOCC4)n2)CCCO3)cc1 [Example 15, 1-ethyl-3-(4-(4-morpholino-6,7-dihydro-5H-pyrano[2,3-d]pyrimidin-2-yl)phenyl)urea], the pEC50 (PC3 cells) was 6.71 and the pEC50 [1] was 7.07.

In the case of CCNC(=O)Nc1ccc(-c2nc3c(c(N4CCOC[C@@H]4C)n2)CCCO3)cc1 [Example 16, (S)-1-ethyl-3-(4-(4-(3-methylmorpholino)-6,7-dihydro-5H-pyrano[2,3-d]pyrimidin-2-yl)phenyl)urea], the pEC50 (PC3 cells) was 6.64, the pKi [2] was 8.70 and the pEC50 [1] was 8.00.

CCNC(=O)Nc1ccc(-c2nc3c(c(N4CCOC[C@@H]4C)n2)COCC3)cc1 [Example 17, (S)-1-ethyl-3-(4-(4-(3-methylmorpholino)-7,8-dihydro-5H-pyrano[4,3-d]pyrimidin-2-yl)phenyl)urea] showed a pEC50 (PC3 cells) of 6.76, a pKi [2] of 8.40 and a pEC50 [1] of 7.66.

In the case of CCNC(=O)Nc1ccc(-c2nc3c(c(N4CCOCC4)n2)COCC3)cc1 [Example 18, 1-ethyl-3-(4-(4-morpholino-7,8-dihydro-5H-pyrano[4,3-d]pyrimidin-2-yl)phenyl)urea], the pEC50 [1] was 6.63.

CCNC(=O)Nc1ccc(-c2nc3c(c(N4CCOC[C@@H]4CC)n2)COCC3)cc1 [Example 19, (S)-1-ethyl-3-(4-(4-(3-ethylmorpholino)-7,8-dihydro-5H-pyrano[4,3-d]pyrimidin-2-yl)phenyl)urea] showed a pEC50 (PC3 cells) of 7.06, a pKi [2] of 9.00 and a pEC50 [1] of 8.22.

C[C@H]1COCCN1c1nc(-c2ccc(NC(=O)Nc3ccon3)cc2)nc2c1COCC2 [Example 20, (S)-1-(isoxazol-3-yl)-3-(4-(4-(3-methylmorpholino)-7,8-dihydro-5H-pyrano[4,3-d]pyrimidin-2-yl)phenyl)urea] was tested, and the pEC50 (PC3 cells) was 7.03, the pKi [2] was 8.70 and the pEC50 [1] was 7.82.

With C[C@H]1COCCN1c1nc(-c2ccc(NC(=O)Nc3ccn(C)n3)cc2)nc2c1COCC2 [Example 21, (S)-1-(1-methyl-1H-pyrazol-3-yl)-3-(4-(4-(3-methylmorpholino)-7,8-dihydro-5H-pyrano[4,3-d]pyrimidin-2-yl)phenyl)urea] the pEC50 (PC3 cells) was 6.72, the pKi [2] was 8.52 and the pEC50 [1] was 6.97.

C[C@H]1COCCN1c1nc(-c2ccc(NC(=O)Nc3cnn(C)c3)cc2)nc2c1COCC2 [Example 22, (S)-1-(1-methyl-1H-pyrazol-4-yl)-3-(4-(4-(3-methylmorpholino)-7,8-dihydro-5H-pyrano[4,3-d]pyrimidin-2-yl)phenyl)urea] was tested, and the pEC50 (PC3 cells) was 7.23, the pKi [2] was 8.40 and the pEC50 [1] was 7.38.

Compound C[C@H]1COCCN1c1nc(-c2ccc(NC(=O)NCC(F)(F)F)cc2)nc2c1COCC2 [Example 23, (S)-1-(4-(4-(3-methylmorpholino)-7,8-dihydro-5H-pyrano[4,3-d]pyrimidin-2-yl)phenyl)-3-(2,2,2-trifluoroethyl)urea] has a pEC50 (PC3 cells) of 6.00, a pKi [2] of 7.80 and a pEC50 [1] of 7.31.
